Laboratory results from patent US8029984B2, “Materials and methods for colorectal cancer screening, diagnosis and therapy” (Licentia, Ltd., priority 2003, dated 2011).

What was measured:
Assay type in all cases: cell-based, human
SW480R cells [1] = assay: Treatment of SW480R cells with inhibitor of DNA methyltransferases
Excerpt: (§1) DNA methylation is frequently abnormal in colorectal cancer, and it was reported recently that Prox-1 expression is suppressed in human hematological cell lines due to hypermethylation of CpG islands in intron 1 of Prox-1 (Nagai, H. et al., Genes Chromosomes Cancer 38, 13-21 (2003)).

SW480A cells = assay: Treatment of SW480A cells with inhibitor of DNA methyltransferases
Excerpt: as §1

SW480R cells [2] = assay: BrdU incorporation in siRNA transfected SW480R cells
Procedure: Transfection of siRNAs was carried out using lipofectamine 2000 (Invitrogen) according to manufacturer's instructions using 0.5% (v/v) lipofectamine 2000 reagent for SW480R and 0.4% (v/v) lipofectamine 2000 for adherent SW480 cells and either 2 nM or 100 nM (f.c.) of siRNA. Transfections were carried out in antibiotic-free media for 4-6 hours before changing cells back to normal culture media. For long-term experiments siRNA transfections were repeated after 48-72 h from previous transfection (at protein level the silencing effect was seen to remain efficient for at least 96 h). Normally approximately 90-95% transfection efficiency was achieved. Opti-MEM (Invitrogen) medium was used in preparation of transfection mixtures.
Experiments were conducted to investigate whether Prox-1 plays role in the generation and maintenance of the highly transformed phenotype. Prox-1 mRNA and protein in the SW480R cells was suppressed using Prox-1 targeting siRNA. […] Eventually the Prox-1 siRNA cells started to spread on the plate and a number of increased actin stress fibers could be visualized by phalloidine staining.

SW480R cells [3] = assay: Soft agar assay (anchorage-independent growth); details: transfected repeatedly over 8 days, two weeks of growth
Procedure: FIG. 3 depicts the efficacy of Prox-1 suppression for inhibiting SW480R cell growth in soft agar. SW480R cells were transfected with GFP siPRNA, Prox-1 siRNA A16 or Prox-1 siRNA A25 or left untreated, and seeded in soft agar in triplicate. The number of colonies was scored after two weeks of growth.
For soft agar assay, 2×10^3 and 2×10^4 cells were seeded in triplicate in 1 ml of 0.33% (w/v) agar (Difco) containing D-MEM, 10% fetal bovine serum, 1 mM glutamine and antibiotics in 6-well plates containing 1 ml of 0.5% bottom agar layer. Cells were fed twice a week, and number of colonies per plate was scored after two weeks in culture.
Since anchorage-independent growth is one of the hallmarks of malignant transformation, experiments were conducted to assess the effects of Prox-1 suppression on the growth of SW480R cells in soft agar. SW480R cells were transfected with GFP siPRNA, Prox-1 siRNA A16 or Prox-1 siRNA A25 repeatedly over an 8-day period, or left untreated, and seeded in soft agar in triplicate. The number of colonies was scored after two weeks of growth.

Nc1ncn([C@H]2C[C@H](O)[C@@H](CO)O2)c(=O)n1 [5-aza-2′-deoxycytidine]
Prox-1 expression (SW480R cells [1]): almost completely suppressed
Prox-1 mRNA (SW480A cells): did not result in the increase
expression of TIMP3 (SW480A cells): increase

GFP siRNA: control siRNA, sense GACGUAAACGGCCACAAGUUU (SEQ ID NO: 8), antisense ACUUGUGGCCGUUUACGUCUU (SEQ ID NO: 9) (listed as RNA, chemistry not given here; listed as Homo sapiens)
BrdU positive cells (SW480R cells [2]): 34±4%

Prox-1 siRNA A16: siRNA duplex, sense 5′-CUGCAAGCUGGAUAGUGAAGU-3′ (SEQ ID NO: 4), antisense 5′-UUCACUAUCCAGCUUGCAGAU-3′ (SEQ ID NO: 5) (RNA, backbone not given here; listed as Homo sapiens)
BrdU positive cells (SW480R cells [2]): 22±0.5%
number of colonies formed in soft agar (SW480R cells [3]): significantly decreased

Prox-1 siRNA A25: siRNA duplex, sense 5′-CUAUGAGCCAGUUUGAUAUUU-3′ (SEQ ID NO: 6), antisense 5′-AUAUCAAACUGGCUCAUAGUU-3′ (SEQ ID NO: 7) (RNA, backbone not given here; listed as Homo sapiens)
BrdU positive cells (SW480R cells [2]): 18±1%
number of colonies formed in soft agar (SW480R cells [3]): significantly decreased
